We go through 1 compound from patent US7141533B2, “Hetaryl-substituted heterocycles” (Bayer CropScience AG, priority 2000, dated 2006).

Assay type in all cases: in vivo
Experiment [1] relates to larvae of the mustard beetle (Phaedon cochleariae). Briefly: Phaedon larvae test. To be noted: cabbage leaves dipped. Here is the method:
(§1) [table] To produce a suitable preparation of active compound, 1 part by weight of active compound is mixed with the stated amounts of solvent and emulsifier, and the concentrate is diluted with emulsifier-containing water to the desired concentration. Cabbage leaves (Brassica oleracea) are treated by being dipped into the preparation of active compound of the desired concentration and are populated with the larvae of the mustard beetle (Phaedon cochleariae) while the leaves are still moist. After the desired period of time, the kill in % is determined. 100% means that all beetle larvae have been killed; 0% means that none of the beetle larvae have been killed.

In the next experiment the test system is Amaranthus. Briefly: Post-emergence test. To be noted: 250 g ai/ha, after three weeks. Here is the method: (§2) [table] To produce a suitable preparation of active compound, 1 part by weight of active compound is mixed with the stated amount of solvent, the stated amount of emulsifier is added and the concentrate is diluted with water to the desired concentration. Test plants of a height of 5 to 15 cm are sprayed with the preparation of active compound such that the particular amounts of active compound desired are applied per unit area. The concentration of the spray liquor is chosen such that the particular amounts of active compound desired are applied in 1000 1 of water/ha. After three weeks, the degree of damage to the plants is rated in % damage in comparison to the development of the untreated control. [table]

Another experiment concerns Chenopodium. Briefly: Post-emergence test. To be noted: 250 g ai/ha, after three weeks. Here is the method:
as §2

A further experiment relates to Echinochloa. Description: Post-emergence test. To be noted: 250 g ai/ha, after three weeks. Here is the method: as §2
Experiment [2] has as its system oilseed rape. Description: Post-emergence test. As to conditions: 250 g ai/ha, after three weeks. The procedure: as §2
Experiment [3] relates to Avena fatua. Briefly: Post-emergence test. As to conditions: 250 g ai/ha, after three weeks. The procedure:
as §2

In experiment [4] the test system is Alopecurus. Description: Post-emergence test. As to conditions: 250 g ai/ha, after three weeks. The procedure:
as §2

The test system of experiment [5] is Setaria. Description: Post-emergence test. To be noted: 250 g ai/ha, after three weeks. Here is the method:
as §2

Experiment [6] relates to peach aphid (Myzus persicae). Briefly: Myzus test. To be noted: cabbage leaves dipped. The procedure: as §1, with “oleracea) which are heavily infested by the peach aphid (Myzus persicae)” for “oleracea)”, “concentration.” for “concentration and are populated with the larvae of the mustard beetle (Phaedon cochleariae) while the leaves are still moist.”, “aphids” for “beetle larvae”

The test system of a further experiment is Matricaria. Description: Pre-emergence test. As to conditions: 125 g ai/ha, after three weeks. The procedure:
(§3) [table] To produce a suitable preparation of active compound, 1 part by weight of active compound is mixed with the stated amount of solvent, the stated amount of emulsifier is added and the concentrate is diluted with water to the desired concentration. Seeds of the test plants are sown in normal soil. After about 24 hours, the soil is sprayed with the preparation of active compound such that the particular amounts of active compound desired are applied per unit area. The concentration of the spray liquor is chosen such that the particular amounts of active compound desired are applied in 1000 1 of water/ha. After three weeks, the degree of damage to the plants is rated in % damage in comparison to the development of the untreated control. [table]

The test system of experiment [7] is oilseed rape. Briefly: Pre-emergence test. As to conditions: 125 g ai/ha, after three weeks. The procedure: as §3
Experiment [8] has as its system Avena fatua. Briefly: Pre-emergence test. To be noted: 125 g ai/ha, after three weeks. The procedure:
as §3

The next experiment has as its system sugar beet. Description: Pre-emergence test. To be noted: 125 g ai/ha, after three weeks. The procedure:
as §3

Experiment [9] has as its system Alopecurus. Briefly: Pre-emergence test. As to conditions: 125 g ai/ha, after three weeks. Here is the method:
as §3

The subject of a further experiment is Lolium. Description: Pre-emergence test. As to conditions: 125 g ai/ha, after three weeks. Here is the method: as §3
The subject of experiment [10] is Setaria. Description: Pre-emergence test. As to conditions: 125 g ai/ha, after three weeks. The procedure: as §3
In experiment [11] the test system is caterpillars of the army worm (Spodoptera frugiperda). Briefly: Spodoptera frugiperda test. To be noted: cabbage leaves dipped. The procedure:
as §1, with “caterpillars” for “the larvae”, “army worm (Spodoptera frugiperda)” for “mustard beetle (Phaedon cochleariae)”, “caterpillars” for “beetle larvae”

The next experiment deals with Meloidogyne incognita. Description: Meloidogyne test. As to conditions: Meloidogyne incognita egg/larvae on lettuce in sand. The procedure: [table] To produce a suitable preparation of active compound, 1 part by weight of active compound is mixed with the stated amounts of solvent and emulsifier, and the concentrate is diluted with water to the desired concentration. Containers are filled with sand, solution of active compound, Meloidogyne incognita egg/larvae suspension and lettuce seeds. The lettuce seeds germinate and the plants develop. On the roots, galls are formed. After the desired period of time, the nematicidal action in % is determined using the formation of galls as a measure. 100% means that no galls have been found; 0% means that the number of galls on the treated plants corresponds to that on the untreated control.

Regarding `COC1CCC2(CC1)OC(=O)C(c1nc(-c3ccc(Cl)cc3)sc1C)=C2O` (stereo not drawn) [Example I-2-A-a-1], in experiment [1], the “kill of beetle larvae” value is “good activity”. The “% damage Amaranthus” value with Amaranthus is recorded as 70%. Moreover, the “% damage Chenopodium” value with Chenopodium amounted to 70%. Further, in the experiment on Echinochloa, the “% damage Echinochloa” value stood at 100%. Also, the “% damage oilseed rape” value with oilseed rape [2] is reported as 20%; with oilseed rape [7], 0%. Also, the “% damage Avena fatua” value in the experiment on Avena fatua [3] was 95%; with Avena fatua [8] it was 100%. The “% damage Alopecurus” value with Alopecurus [4] is 80%; with Alopecurus [9], 90%. Besides, the “% damage Setaria” value in the experiment with Setaria [5] and in the experiment on Setaria [10] was 100% each time. Besides, the kill of aphids result in experiment [6] was “good activity”. In addition, in the experiment on Matricaria, the “% damage Matricaria” value turned out to be 100%. For the same compound, the “% damage sugar beet” value in the experiment on sugar beet turned out to be 0%. For the same compound, the “% damage Lolium” value in the experiment with Lolium was found to be 100%. The kill of caterpillars entry in [11] is “good activity”. The “nematicidal action (formation of galls)” value in the experiment on Meloidogyne incognita is given as “good activity”.
